Assay: CYP reaction phenotyping in HLM with selective CYP inhibitors
Conditions: ketoconazole 1 or 10 μM; ticlopidine 20 μM; mitragynine 2 μM

CC(=O)N1CCN(c2ccc(OCC3COC(Cn4ccnc4)(c4ccc(Cl)cc4Cl)O3)cc2)CC1 (centres unmarked) [ketoconazole]
effect on decomposition of mitragynine in HLM: robustly inhibited
effect on formation of 7-OH from mitragynine in HLM: robustly inhibited

Source: PMC6598159 (ACS Central Science, 2019)
